Measured values as given in ChEMBL document CHEMBL1201862, “PubChem BioAssay data set” (2004).
Each block holds one compound with its values, some of them ahead of it. The source made the active and inactive calls.

How the values were obtained:
Paired box protein Pax-8 = Paired box protein Pax-8 (Homo sapiens, UniProt Q06710); test: PAX8 transcriptional activity inhibition in RMG-I – RMG-I cells, luciferase, cherry-pick, dose response (AID 687027); assay type: functional, cell-based;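 further: luciferase reporter driven by Pax8 target thyroperoxidase promoter measured by SteadyGlo luminescence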
[1] = A2780 cell killing – plate reader, dry powder samples, cytotoxicity control, dose response (AID 743046); assay type: functional, cell-based
[2] = OVCAR-3 cell viability loss – plate reader, dry powder samples, PAX8 inhibitor project, dose response (AID 743044); assay type: functional, cell-based
[3] = target: T1, Mannose-6-phosphate isomerase (Homo sapiens, UniProt P34949); test: MPI inhibition at elevated mannose 6-phosphate – biochemical, fluorescence intensity, high mannose 6-phosphate, primary screen (AID 1220)
T1 sequence (P34949 whole entry): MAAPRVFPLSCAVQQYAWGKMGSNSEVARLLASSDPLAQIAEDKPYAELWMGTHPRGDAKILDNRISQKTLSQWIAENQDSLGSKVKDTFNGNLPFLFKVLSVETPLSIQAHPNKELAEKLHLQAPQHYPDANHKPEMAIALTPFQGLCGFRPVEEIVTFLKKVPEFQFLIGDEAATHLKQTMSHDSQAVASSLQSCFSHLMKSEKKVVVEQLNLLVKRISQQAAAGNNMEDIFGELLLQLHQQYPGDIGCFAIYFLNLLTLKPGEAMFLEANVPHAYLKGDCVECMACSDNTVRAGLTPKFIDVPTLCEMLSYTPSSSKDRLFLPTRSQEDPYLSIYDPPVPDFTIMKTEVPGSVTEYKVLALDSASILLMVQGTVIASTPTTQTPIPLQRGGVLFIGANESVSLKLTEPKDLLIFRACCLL

[4] = T. cruzi growth inhibition in host cells, dose response, cell-based, plate reader, dry powder, set 2 (AID 652275); assay type: functional
[5] = Luminescence-based cell-based high throughput dose response assay to identify activators of the DAF-12 from the parasite S. stercoralis (ssDAF-12).; assay type: functional
[6] = target: T2, Oxysterols receptor LXR-beta (Homo sapiens, UniProt P55055); test: LXR agonists, Gal4 luciferase reporter, dose response, counter-screen for ssDAF-12 agonist project, cell-based, luminescence, HEK293, S. stercoralis campaign (AID 720737); assay type: functional; conditions: read-out: IC50 (the source's name)
T2 sequence (P55055 whole entry): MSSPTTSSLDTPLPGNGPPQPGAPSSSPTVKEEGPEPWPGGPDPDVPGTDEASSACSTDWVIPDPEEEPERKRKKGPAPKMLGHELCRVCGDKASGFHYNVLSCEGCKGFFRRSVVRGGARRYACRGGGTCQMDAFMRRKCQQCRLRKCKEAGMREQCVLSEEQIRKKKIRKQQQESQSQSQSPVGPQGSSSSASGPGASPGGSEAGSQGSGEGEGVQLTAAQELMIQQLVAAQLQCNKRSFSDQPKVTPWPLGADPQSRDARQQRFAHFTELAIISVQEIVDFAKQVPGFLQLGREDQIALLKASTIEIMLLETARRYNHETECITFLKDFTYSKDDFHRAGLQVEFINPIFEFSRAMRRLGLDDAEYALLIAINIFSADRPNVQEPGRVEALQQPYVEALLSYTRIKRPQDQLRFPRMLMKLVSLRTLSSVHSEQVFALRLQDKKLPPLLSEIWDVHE

[7] = HIV-1 Vif–A3G interaction blockers – biochemical, TR-FRET, GST-Vif 1-94, biotin-A3G peptide, dose response retest, primary screen (AID 1117319); assay type: functional;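 further: TR-FRET signal of purified GST-Vif binding a biotinylated A3G peptide; inhibitors lower the FRET signal by blocking Vif and A3G binding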
[8] = target: E3 ubiquitin-protein ligase Mdm2 (Homo sapiens, UniProt Q00987); test: MDM2-luc reporter signal enhancers, multi-concentration potency testing, MDM2 ubiquitin-protein ligase inhibitor program, whole-cell format, luminescence detection, 384-well microplate (AID 1394); assay type: functional;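 further: MDM2 E3 inhibitors raise luminescence so EC50 is for signal enhancement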
[9] = target: RNA-editing ligase 1, mitochondrial (Trypanosoma brucei brucei, UniProt P86926); test: inhibition of trypanosome RNA editing ligase – biochemical, fluorescence, Trypanosoma brucei, dose response (AID 1117295); assay type: functional
[10] = target: Disintegrin and metalloproteinase domain-containing protein 17 (Homo sapiens, UniProt P78536); test: inhibition of ADAM17 substrate cleavage – biochemical, quenched FRET substrate, counter-screen for ADAM10 exosite inhibitor project, dose response (AID 743253)
[11] = potency of ADAM10 substrate cleavage blockers – biochemical, QFRET, dose response (AID 743254);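 further: ADAM10 enzyme with the DM2 quenched FRET peptide as substrate; EDANS fluorescence gain as the protease cuts the substrate; inhibitor potency against ADAM10 proteolytic activity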
Fatty acid synthase [12] = target: T3, Fatty acid synthase (Homo sapiens, UniProt P49327); test: inhibition of human FAS-TE enzyme activity – biochemical, endpoint fluorescence intensity, uHTS hits, dose response (AID 624327); assay type: functional;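 further: fluorescence from hydrolysis of an O-methyl fluorescein acyl ester substrate by the enzyme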
Fatty acid synthase [13] = target: T3, Fatty acid synthase; test: inhibition of human FAS-TE enzyme activity – biochemical, kinetic fluorescence intensity, dose response (AID 624326); assay type: functional;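 further: rate of fluorescence rise from hydrolysis of a fluorogenic O-methyl fluorescein ester substrate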
[14] = target: Diphosphomevalonate decarboxylase (Streptococcus pneumoniae serotype 2 (strain D39 / NCTC 7466), UniProt Q9FD53); test: diphosphomevalonate decarboxylase inhibitor confirmation – biochemical, cuvette format, coupled NADH fluorescence (AID 1028); assay type: functional
[15] = P. falciparum Dd2 growth inhibitors, dose response, SYBR Green, cherry-picked samples (AID 1159567); assay type: functional, cell-based
[16] = toxicity to human hepatoma HepG2 cells – cell-based, cherry-picked samples, cytotoxicity control, dose response (AID 1159577); assay type: functional
[17] = viability loss in human Jurkat cells – cell-based, luminescence, cytotoxicity control for P. falciparum gametocyte viability project, dose response (AID 1117277); assay type: functional;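 further: potency reflects loss of cellular ATP meaning fewer viable cells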
[18] = viability inhibitors of stage V gametocytes – luminescence, dose response (AID 1117278); assay type: functional, cell-based;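 further: gametocytes exposed to compound for 24 hours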

Disintegrin and metalloproteinase domain-containing protein 17, sequence (P78536 whole entry, the tested form may be a part): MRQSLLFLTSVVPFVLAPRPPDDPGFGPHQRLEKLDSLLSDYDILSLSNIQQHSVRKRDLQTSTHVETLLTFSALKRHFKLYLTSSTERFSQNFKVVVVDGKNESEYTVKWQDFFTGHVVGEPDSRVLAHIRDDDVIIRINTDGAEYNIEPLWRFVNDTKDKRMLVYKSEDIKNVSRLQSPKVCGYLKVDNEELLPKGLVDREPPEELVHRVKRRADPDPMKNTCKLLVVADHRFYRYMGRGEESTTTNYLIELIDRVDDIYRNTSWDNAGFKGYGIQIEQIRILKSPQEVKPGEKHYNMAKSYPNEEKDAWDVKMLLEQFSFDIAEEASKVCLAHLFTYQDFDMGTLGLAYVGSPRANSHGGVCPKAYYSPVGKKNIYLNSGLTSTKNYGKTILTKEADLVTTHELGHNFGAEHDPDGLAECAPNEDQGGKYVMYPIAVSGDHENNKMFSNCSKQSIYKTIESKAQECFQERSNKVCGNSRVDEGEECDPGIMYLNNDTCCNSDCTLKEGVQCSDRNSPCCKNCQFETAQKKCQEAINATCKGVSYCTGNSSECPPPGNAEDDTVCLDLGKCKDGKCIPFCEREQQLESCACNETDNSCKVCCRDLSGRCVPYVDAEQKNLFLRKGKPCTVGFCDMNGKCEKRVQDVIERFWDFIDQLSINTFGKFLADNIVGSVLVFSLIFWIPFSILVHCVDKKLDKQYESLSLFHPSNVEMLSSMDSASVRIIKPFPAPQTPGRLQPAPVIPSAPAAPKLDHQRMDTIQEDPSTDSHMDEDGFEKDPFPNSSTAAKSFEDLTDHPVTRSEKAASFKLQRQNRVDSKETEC
T3 sequence (P49327 whole entry): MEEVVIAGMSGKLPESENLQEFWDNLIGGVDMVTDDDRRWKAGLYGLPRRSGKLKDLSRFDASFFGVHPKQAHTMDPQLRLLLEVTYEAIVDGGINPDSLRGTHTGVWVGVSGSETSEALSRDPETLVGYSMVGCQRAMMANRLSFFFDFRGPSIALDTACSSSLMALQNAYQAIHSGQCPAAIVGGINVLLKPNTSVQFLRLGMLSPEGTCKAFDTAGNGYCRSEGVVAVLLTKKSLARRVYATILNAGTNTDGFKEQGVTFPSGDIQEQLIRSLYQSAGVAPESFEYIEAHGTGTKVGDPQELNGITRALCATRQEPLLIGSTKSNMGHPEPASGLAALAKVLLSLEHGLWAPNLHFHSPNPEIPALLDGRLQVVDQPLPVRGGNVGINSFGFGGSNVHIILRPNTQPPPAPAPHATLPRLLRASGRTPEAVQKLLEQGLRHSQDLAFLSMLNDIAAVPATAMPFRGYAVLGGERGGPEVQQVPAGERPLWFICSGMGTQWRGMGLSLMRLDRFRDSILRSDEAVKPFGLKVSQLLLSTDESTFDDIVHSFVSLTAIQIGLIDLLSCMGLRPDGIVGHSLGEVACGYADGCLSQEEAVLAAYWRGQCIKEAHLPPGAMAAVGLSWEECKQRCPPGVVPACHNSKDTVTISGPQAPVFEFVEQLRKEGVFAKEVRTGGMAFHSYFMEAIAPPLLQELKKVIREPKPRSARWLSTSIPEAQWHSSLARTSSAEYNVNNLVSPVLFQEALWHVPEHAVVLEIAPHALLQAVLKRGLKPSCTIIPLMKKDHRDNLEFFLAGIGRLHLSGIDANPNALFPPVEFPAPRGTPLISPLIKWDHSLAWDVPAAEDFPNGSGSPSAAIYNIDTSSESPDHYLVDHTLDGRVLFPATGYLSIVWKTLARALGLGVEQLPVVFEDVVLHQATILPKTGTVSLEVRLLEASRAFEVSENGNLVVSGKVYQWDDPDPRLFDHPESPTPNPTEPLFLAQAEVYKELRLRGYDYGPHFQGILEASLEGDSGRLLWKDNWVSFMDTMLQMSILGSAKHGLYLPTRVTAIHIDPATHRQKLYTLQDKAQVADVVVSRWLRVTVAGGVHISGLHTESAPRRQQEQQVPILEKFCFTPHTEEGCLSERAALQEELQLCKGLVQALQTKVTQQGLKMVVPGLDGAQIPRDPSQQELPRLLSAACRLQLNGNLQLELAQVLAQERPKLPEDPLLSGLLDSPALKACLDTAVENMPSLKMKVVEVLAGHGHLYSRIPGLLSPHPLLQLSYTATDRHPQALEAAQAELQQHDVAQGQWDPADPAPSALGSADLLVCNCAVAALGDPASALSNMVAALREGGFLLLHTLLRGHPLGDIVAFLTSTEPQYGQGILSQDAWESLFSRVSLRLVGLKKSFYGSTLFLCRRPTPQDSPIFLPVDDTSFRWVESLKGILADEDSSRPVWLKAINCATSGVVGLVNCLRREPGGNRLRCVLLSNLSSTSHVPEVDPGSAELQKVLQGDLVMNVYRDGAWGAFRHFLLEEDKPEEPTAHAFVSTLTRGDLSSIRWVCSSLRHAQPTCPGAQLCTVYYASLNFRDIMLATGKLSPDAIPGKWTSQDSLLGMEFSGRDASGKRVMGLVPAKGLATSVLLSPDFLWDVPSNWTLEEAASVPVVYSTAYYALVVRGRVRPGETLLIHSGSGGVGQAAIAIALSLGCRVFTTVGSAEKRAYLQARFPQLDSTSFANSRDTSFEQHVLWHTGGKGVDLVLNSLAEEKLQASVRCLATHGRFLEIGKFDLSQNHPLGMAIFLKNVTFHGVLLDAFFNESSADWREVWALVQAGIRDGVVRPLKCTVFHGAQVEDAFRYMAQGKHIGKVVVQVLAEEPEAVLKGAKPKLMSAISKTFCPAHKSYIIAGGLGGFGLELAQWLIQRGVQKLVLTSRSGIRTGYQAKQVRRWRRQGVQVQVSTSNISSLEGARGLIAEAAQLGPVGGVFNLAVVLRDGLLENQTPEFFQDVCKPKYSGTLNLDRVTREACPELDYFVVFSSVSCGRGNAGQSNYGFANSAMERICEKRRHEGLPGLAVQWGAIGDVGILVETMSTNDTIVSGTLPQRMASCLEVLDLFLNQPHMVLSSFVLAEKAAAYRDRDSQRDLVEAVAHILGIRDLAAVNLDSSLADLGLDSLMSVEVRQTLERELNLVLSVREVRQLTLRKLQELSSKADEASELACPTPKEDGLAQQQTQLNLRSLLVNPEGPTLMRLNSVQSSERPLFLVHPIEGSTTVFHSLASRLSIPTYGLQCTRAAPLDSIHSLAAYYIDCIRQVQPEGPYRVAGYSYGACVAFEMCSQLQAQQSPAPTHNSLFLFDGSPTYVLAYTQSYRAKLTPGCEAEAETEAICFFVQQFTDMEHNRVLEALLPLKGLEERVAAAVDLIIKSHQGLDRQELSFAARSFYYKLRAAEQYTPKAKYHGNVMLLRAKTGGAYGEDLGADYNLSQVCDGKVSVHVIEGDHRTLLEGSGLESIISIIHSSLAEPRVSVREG
Diphosphomevalonate decarboxylase, sequence (Q9FD53 whole entry): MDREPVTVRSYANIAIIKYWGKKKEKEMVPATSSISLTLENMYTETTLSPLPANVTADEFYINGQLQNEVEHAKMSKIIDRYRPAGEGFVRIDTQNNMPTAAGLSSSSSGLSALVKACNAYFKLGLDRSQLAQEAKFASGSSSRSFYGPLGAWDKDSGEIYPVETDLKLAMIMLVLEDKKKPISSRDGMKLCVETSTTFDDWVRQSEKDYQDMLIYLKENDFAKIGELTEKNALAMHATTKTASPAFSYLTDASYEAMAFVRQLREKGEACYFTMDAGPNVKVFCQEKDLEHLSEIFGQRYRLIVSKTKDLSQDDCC
E3 ubiquitin-protein ligase Mdm2, sequence (Q00987 whole entry): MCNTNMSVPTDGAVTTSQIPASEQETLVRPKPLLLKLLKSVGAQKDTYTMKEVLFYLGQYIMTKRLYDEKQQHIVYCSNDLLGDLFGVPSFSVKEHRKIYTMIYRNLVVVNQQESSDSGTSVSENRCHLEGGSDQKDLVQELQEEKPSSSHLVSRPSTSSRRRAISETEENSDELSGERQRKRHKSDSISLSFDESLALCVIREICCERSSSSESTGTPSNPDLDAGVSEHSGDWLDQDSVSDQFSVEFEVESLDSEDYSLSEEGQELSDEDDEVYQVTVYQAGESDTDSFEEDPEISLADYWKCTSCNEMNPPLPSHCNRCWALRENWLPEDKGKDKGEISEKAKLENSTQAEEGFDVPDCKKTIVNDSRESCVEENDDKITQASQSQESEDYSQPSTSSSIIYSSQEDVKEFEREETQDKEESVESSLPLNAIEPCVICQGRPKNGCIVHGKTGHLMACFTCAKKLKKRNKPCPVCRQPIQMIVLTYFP
Paired box protein Pax-8, sequence (Q06710 whole entry): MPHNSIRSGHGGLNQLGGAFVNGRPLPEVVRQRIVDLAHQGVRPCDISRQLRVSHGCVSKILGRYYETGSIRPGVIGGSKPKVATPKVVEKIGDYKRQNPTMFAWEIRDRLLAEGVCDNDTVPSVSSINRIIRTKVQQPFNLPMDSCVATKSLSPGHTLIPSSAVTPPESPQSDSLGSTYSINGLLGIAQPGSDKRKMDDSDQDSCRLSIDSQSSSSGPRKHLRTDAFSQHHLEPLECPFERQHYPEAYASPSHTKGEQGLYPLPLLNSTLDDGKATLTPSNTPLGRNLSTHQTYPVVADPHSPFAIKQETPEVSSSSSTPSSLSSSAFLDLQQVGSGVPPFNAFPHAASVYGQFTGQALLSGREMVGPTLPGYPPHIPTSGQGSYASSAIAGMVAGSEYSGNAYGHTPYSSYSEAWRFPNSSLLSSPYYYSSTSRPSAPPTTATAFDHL
RNA-editing ligase 1, mitochondrial, sequence (P86926 whole entry, the tested form may be a part): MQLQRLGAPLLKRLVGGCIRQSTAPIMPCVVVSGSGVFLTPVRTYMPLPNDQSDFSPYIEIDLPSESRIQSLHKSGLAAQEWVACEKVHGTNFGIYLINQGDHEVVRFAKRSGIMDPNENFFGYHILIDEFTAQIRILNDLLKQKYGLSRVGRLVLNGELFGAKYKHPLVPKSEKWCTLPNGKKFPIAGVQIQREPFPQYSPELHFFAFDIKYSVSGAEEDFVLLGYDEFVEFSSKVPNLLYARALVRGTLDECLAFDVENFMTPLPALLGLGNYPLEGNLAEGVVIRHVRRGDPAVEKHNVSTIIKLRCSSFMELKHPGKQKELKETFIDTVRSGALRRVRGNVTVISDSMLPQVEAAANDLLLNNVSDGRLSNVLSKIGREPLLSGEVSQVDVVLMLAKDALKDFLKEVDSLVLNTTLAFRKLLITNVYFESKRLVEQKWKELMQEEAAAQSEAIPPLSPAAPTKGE

Compound: Cc1ccc(S(=O)(=O)Nc2ccc3c(c2)C(=O)N([C@H](C)CO)C[C@@H](C)[C@@H](CN(C)Cc2ccc4c(c2)OCO4)OCCCC[C@@H](C)O3)cc1
AC50 (Paired box protein Pax-8): 21 µM (active)
AC50 [1]: < 0.26 µM (active)
AC50 [2]: 29.1 µM (active)

IC50 [3]: > 50 µM (not active)
Compound: On1c2c(c3c4nonc4ccc31)CCCC2

Compound: CC(C)(C)[S@+]([O-])N1Cc2cc(C(=O)NCc3ccc4c(c3)OCO4)nc(-c3cccc(-c4cccnc4)c3)c2[C@@H]1CCO
AC50 [4]: 1.14 µM (active)

Compound: Cc1ccc(-c2cn3cccc(C)c3n2)cc1
IC50 [5]: > 67.5 µM (inactive)
EC50 [6]: > 67.5 µM (inactive)

IC50 [7]: > 100 µM (active)
Compound: CC(=O)Cc1nsc(Nc2ccc3c(c2)OCCO3)n1

EC50 [8]: 0.01 µM (not active)
Compound: Cc1cc(OC(=O)c2ccccc2)c([N+](=O)[O-])c(O)n1

IC50 [9]: 42.4 µM (inactive)
Compound: COCCCNC(=O)C1CCN(S(=O)(=O)c2ccc3[nH]c(=O)oc3c2)CC1

IC50 [10]: > 69.5 µM (inactive)
IC50 [11]: > 69.5 µM (inactive)
Compound: O=C(CSc1nnc(Cc2cccs2)n1-c1ccc(Cl)cc1)Nc1ccc(OCc2ccccc2)cc1

IC50 (Fatty acid synthase [12]): 15.3 µM (active)
EC50 [8]: 11.1 µM (active)
IC50 (Fatty acid synthase [13]): 10.9 µM (active)
Compound: COc1ccccc1-c1cc(SC)c(C#N)c(=O)o1

Compound: O=C(NC1CC1)c1cccc(-n2sc3ccccc3c2=O)c1
IC50 [14]: 20.4 µM (active)

Compound: CN1CCN(C(=O)c2ccc(-n3sc4ccccc4c3=O)cc2)CC1
IC50 [14]: 25.8 µM (active)

Compound: COc1ccc(C#Cc2ccc([C@@H]3[C@H](CO)N4CCCCN(C(=O)Cc5ccccc5)C[C@@H]34)cc2)cc1
AC50 [15]: 1.42 µM (active)
AC50 [16]: 7.73 µM (active)

IC50 [10]: > 69.5 µM (inactive)
IC50 [11]: > 69.5 µM (inactive)
Compound: Cc1ccc(C(=O)Nc2ccccc2C(=O)NCc2ccco2)cc1S(=O)(=O)N1CCCCC1

Compound: CCN(c1ccc(C)c(C)c1)S(=O)(=O)c1ccc2c(c1)CCN2C(=O)CCC(=O)O
IC50 [17]: > 83.3 µM (inactive)
IC50 [18]: > 109 µM (inactive)
